From PMC7662849, “Mimicking the Nucleosomal Context in Peptide-Based Binders of a H3K36me Reader Increases Binding Affinity While Altering the Binding Mode” (Molecules, 2020) come the findings set out here.

Where two headings read alike, the source gives them in different places. Positions of bridges follow the written chain, without caps; N, C: chain ends. Non-standard residues stand in square brackets, D forms with d. Residues, ends and D or L forms follow the SMILES beside them. Chains are numbered I, II in the order given. Lys(Me3) = C[N+](C)(C)CCCC[C@H](N)C(=O)O

The experiment concerns the target T1, PSIP1^PWWP (AA 2-100, Uniprot-ID: O75475) (Homo sapiens, UniProt O75475).
T1 construct: PSIP1^PWWP (AA 2-100, Uniprot-ID: O75475); GST (cleaved yes); made in house; host or cells: E. coli BL21 Rosetta2 (DE3)
The experiment in a line: NMR titration (15N-HSQC chemical shift perturbation) of peptides binding to PSIP1 PWWP domain.

T1 sequence (O75475 2-100): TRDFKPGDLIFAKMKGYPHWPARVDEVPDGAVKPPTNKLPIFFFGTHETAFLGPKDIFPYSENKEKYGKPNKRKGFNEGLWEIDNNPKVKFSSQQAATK
Protocol: Cells were grown to an OD of 0.6 and induced with 500 μM IPTG. The protein was expressed for 3 h at 37 °C. […] The GST-fusion protein was eluted using elution buffer (50 mM KPi pH 7.0, 100 mM KCl, 50 mM reduced glutathione, 1 mM DTT, complete EDTA-free protease inhibitor (Roche)). Thrombin cleavage of the GST-tag was carried out for 3 h at 37 °C after adding 10U of thrombin to the combined eluted fractions, then quenched by addition of 1 mM PMSF and incubation for 15 min at 37 °C. […] The PWWP-containing fractions were then combined and dialyzed to NMR buffer (20 mM NaPi (pH = 7.0), 150 mM NaCl, cOmplete protease inhibitor, 10% (v/v) D2O).
All peptides were dissolved in NMR buffer (20 mM NaPi (pH = 7.0), 150 mM NaCl, cOmplete protease inhibitor, 10% (v/v) D2O). The pH for all peptide stocks was adjusted to 7.0 using NH4OH. Determination of peptide stock concentrations was done using 1D NMR spectra with TSP as reference compound. […] The Val signal was verified by 2D NMR spectra (TOCSY, ^13C-HSQC).
All NMR experiments were carried out at 298 K on a Bruker Avance spectrometer operating at 750 MHz ^1H Larmor frequency with room-temperature probe. Processing was done using the Bruker’s TopSpin. Spectra were analyzed using Sparky (Goddard and Kneller, UCSF).
Titration data were fitted using MatLAB scripts (available upon request) using the fast-exchange assumption [50]. […] Profiles were selected either form the ^1H or ^15N dimension. A 1:1 binding model was assumed. […] The degrees of freedom are equal to total number of points NM compensated for the number of global variables (KD), the M offset-variables and M chemical shift differences. To obtain the 95% confidence limits in the KD, a one-dimensional grid search was performed either systematically increasing or decreasing the KD until the reduced χ^2 exceeded the 95% critical value according to an F-test.
Analysis of the bound-state chemical shifts was based on selected residues K14 (^1H/^15N), M15 (^1H), W21 (^1H), F44 (^15N) T47 (^1H/^15N), H48 (^1H), T50 (^1H/^15N) and A51 (^1H/^15N) due to their significant shift in all experiments.

Turning to `CC(=O)N[C@@H](CO)C(=O)N[C@@H](C)C(=O)N1CCC[C@H]1C(=O)N[C@@H](C)C(=O)N[C@H](C(=O)NCC(=O)NCC(=O)N[C@H](C(=O)N[C@@H](CCCC[N+](C)(C)C)C(=O)NCC(=O)NCC(=O)NCCCC[C@H](NC(=O)CNC(=O)CNC(=O)[C@H](CCC(=O)O)NC(=O)[C@H](CCC(=O)O)NC(=O)[C@H](CCC(=O)O)NC(=O)[C@H](CCC(=O)O)NC(=O)[C@H](CCC(=O)O)NC(C)=O)C(=O)NCC(=O)NCC(=O)N[C@@H](CCC(=O)O)C(=O)N[C@@H](CCC(=O)O)C(=O)N[C@@H](CCC(=O)O)C(=O)N[C@@H](CCC(=O)O)C(=O)N[C@@H](CCC(=O)O)C(N)=O)C(C)C)[C@@H](C)O` [H3^(E5)2] (I: Ac-EEEEEGGKGGEEEEE-NH2 / II: Ac-SAPATGGV[Lys(Me3)]GG; amide I:8-II:C; N-terminus and C-terminus assumed), the Kd was 190 to 700 µM (same titration and fit, limits from grid search, F-test, read-out: KD, 95% probability limits); 360 µM (~300 µM 15N-PSIP1^PWWP, 20 mM NaPi pH 7.0, 150 mM NaCl, 298 K, 1:1 binding model, read-out: KD (global fit of NMR-derived binding curves)).
As for `CC(=O)N[C@@H](CO)C(=O)N[C@@H](C)C(=O)N1CCC[C@H]1C(=O)N[C@@H](C)C(=O)N[C@H](C(=O)NCC(=O)NCC(=O)N[C@H](C(=O)N[C@@H](CCCC[N+](C)(C)C)C(=O)N[C@@H](CCCCN)C(=O)N1CCC[C@H]1C(=O)N[C@@H](CCC(=O)O)C(=O)N[C@@H](CCC(=O)O)C(=O)N[C@@H](CCC(=O)O)C(=O)N[C@@H](CCC(=O)O)C(=O)N[C@@H](CCC(=O)O)C(=O)N[C@@H](CCC(=O)O)C(N)=O)C(C)C)[C@@H](C)O` [H3^PE6] (Ac-SAPATGGV[Lys(Me3)]KPEEEEEE-NH2), the Kd (~300 µM 15N-PSIP1^PWWP, 20 mM NaPi pH 7.0, 150 mM NaCl, 10% D2O, 298 K, 1:1 binding model, fast exchange, global fit of all residues with significant CSP, read-out: KD, best-fit value (global fit of NMR titration data)) stood at 1740 µM.
